Entries after “also recorded” stand apart in the source; their conditions may differ. Blank lines part the entries; values can stand above or below the compound they belong to.
Tests used:
Type in all cases: physicochemical
[1] = Competitive slurry experiments mixing Form 1 and Form 2 in various solvents
Procedure: Competitive slurry experiments were performed at 15° C. (Table 5) or 40° C. (Table 6) by mixing Form 1 and Form 2 in various solvents in acetonitrile/water, acetone/water and methanol/water mixtures. […] (Table 5) or 40° C. (Table 6).

[2] = Storage stability of the polymorphs followed by XRD
Procedure: The top panel depicts the polymorph at initiation and the bottom three panels depict the polymorph after 24 months. FIG. 5 Panel A: initial control; FIG. 5 Panel B: sample stored for 2 years in open bottle in stability chambers at 25° C./60% relative humidity (RH); FIG. 5 Panel C: sample stored for 2 years in closed bottle in stability chambers at 40° C./75% RH; FIG. 5 Panel D: sample stored for 2 years in open bottle in stability chambers at 40° C./75% RH.
The top panel depicts the polymorph at initiation and the bottom panels depict the polymorph after 3, 6, 12 and 24 months.

[3] = Dynamic vapor sorption (hygroscopicity); conditions: DVS, 25° C., 0-90% relative humidity
Procedure: Dynamic vapor sorption (DVS) analysis was performed by measuring mass variation of the crystalline form of 4-[(7-methoxy-2,3-dihydro-1,4-benzothiazepin-4(5H)yl)methyl]benzoic acid hemifumarate as a function of relative humidity using a DVS intrinsic instrument. A 5 mg to 10 mg of a sample of a crystalline form of 4-[(7-methoxy-2,3-dihydro-1,4-benzothiazepin-4(5H)yl)methyl]benzoic acid, hemifumarate was placed into a sample pan of a DVS intrinsic instrument at 25° C. under controlled humidity. The mass variation was recorded as a function of relative humidity.
Measurement of DVS comprised: (a) equilibrating a sample of the crystalline form at 25° C. and 50% relative humidity in a temperature-controlled and humidity controlled chamber until mass variation is less than 0.002% per minute for 6 hours; (b) increasing the relative humidity from 50% to 90% at a rate of 10% per hour; (c) equilibrating the sample at 90% relative humidity until mass variation of less than 0.002% per minute for 6 hours is observed; (d) decreasing the relative humidity from 90% to 0% at a rate of 10% per hour; (e) equilibrating the sample at 0% relative humidity until mass variation of less than 0.002% per minute for 6 hours is observed; and (f) increasing the relative humidity from 0% to 50% at a rate of 10% per hour.

[4] = Thermogravimetric analysis (loss of mass before melting/degradation); conditions: 25° C. to 250° C. at about 10° C./minute
Procedure: Thermogravimetric analysis (TGA) was performed. A 10 to 20 mg of sample of a crystalline form of 4-[(7-methoxy-2,3-dihydro-1,4-benzothiazepin-4(5H)yl)methyl]benzoic acid hemifumarate was placed into an aluminum pan, with nitrogen purge. The sample was equilibrated at 25° C. in a temperature-controlled chamber. The sample was heated at a scan rate of about 10° C./minute to 250° C. under nitrogen purge. A TGA Q5000 thermogravimetric analysis instrument was used.

XRD (form after competitive slurry) ([1]; 15° C. for 10 days, Acetone): Form 2
XRD (form after competitive slurry) ([1]; 15° C. for 10 days, Acetone/water 30/70): Form 2
XRD (form after competitive slurry) ([1]; 15° C. for 10 days, Acetone/water 90/10): Form 2
XRD (form after competitive slurry) ([1]; 15° C. for 10 days, Acetone/water 96/4): Form 2
XRD (form after competitive slurry) ([1]; 15° C. for 10 days, Acetone/water 98/2): Form 2
XRD (form after competitive slurry) ([1]; 15° C. for 10 days, Acetonitrile): Acetonitrile solvate (Form 4)
XRD (form after competitive slurry) ([1]; 15° C. for 10 days, Acetonitrile/water 15/85): Acetonitrile solvate (Form 4)
XRD (form after competitive slurry) ([1]; 15° C. for 10 days, Acetonitrile/water 87/13): Acetonitrile solvate (Form 4)
XRD (form after competitive slurry) ([1]; 15° C. for 10 days, Acetonitrile/water 94/6): Acetonitrile solvate (Form 4)
XRD (form after competitive slurry) ([1]; 15° C. for 10 days, Acetonitrile/water 98/2): Acetonitrile solvate (Form 4)
XRD (form after competitive slurry) ([1]; 15° C. for 10 days, Methanol): Methanol solvate (Form 3)
XRD (form after competitive slurry) ([1]; 15° C. for 10 days, Methanol/water 20/80): Form 2 + Methanol solvate
XRD (form after competitive slurry) ([1]; 15° C. for 10 days, Methanol/water 50/50): Methanol solvate (Form 3)
XRD (form after competitive slurry) ([1]; 15° C. for 10 days, Methanol/water 70/30): Methanol solvate (Form 3)
XRD (form after competitive slurry) ([1]; 15° C. for 10 days, Methanol/water 95/5): Methanol solvate (Form 3)
XRD (form after competitive slurry) ([1]; 15° C. for 10 days, Water): Form 2
XRD (form after competitive slurry) ([1]; 40° C. for 5 days, Acetone): Form 2
XRD (form after competitive slurry) ([1]; 40° C. for 5 days, Acetone/water 30/70): Form 2
XRD (form after competitive slurry) ([1]; 40° C. for 5 days, Acetone/water 90/10): Form 2
XRD (form after competitive slurry) ([1]; 40° C. for 5 days, Acetone/water 96/4): Form 2
XRD (form after competitive slurry) ([1]; 40° C. for 5 days, Acetone/water 98/2): Form 2
XRD (form after competitive slurry) ([1]; 40° C. for 5 days, Acetonitrile): Acetonitrile solvate (Form 4)
XRD (form after competitive slurry) ([1]; 40° C. for 5 days, Acetonitrile/water 15/85): Acetonitrile solvate (Form 4)
XRD (form after competitive slurry) ([1]; 40° C. for 5 days, Acetonitrile/water 87/13): Acetonitrile solvate (Form 4)
XRD (form after competitive slurry) ([1]; 40° C. for 5 days, Acetonitrile/water 94/6): Acetonitrile solvate (Form 4)
XRD (form after competitive slurry) ([1]; 40° C. for 5 days, Acetonitrile/water 98/2): Acetonitrile solvate (Form 4)
XRD (form after competitive slurry) ([1]; 40° C. for 5 days, Methanol): Methanol solvate (Form 3)
XRD (form after competitive slurry) ([1]; 40° C. for 5 days, Methanol/water 20/80): Form 2 + Methanol solvate
XRD (form after competitive slurry) ([1]; 40° C. for 5 days, Methanol/water 50/50): Methanol solvate (Form 3)
XRD (form after competitive slurry) ([1]; 40° C. for 5 days, Methanol/water 70/30): Methanol solvate (Form 3)
XRD (form after competitive slurry) ([1]; 40° C. for 5 days, Methanol/water 95/5): Methanol solvate (Form 3)
XRD (form after competitive slurry) ([1]; 40° C. for 5 days, Water): Form 2
Form obtained from slurry ([1]; acetone/water mixtures, all tested conditions): converted into Form 2
Form obtained from slurry ([1]; methanol/water (20/80 v/v)): a mixture of Form 2 and methanol solvate
SMILES: COc1ccc2c(c1)CN(Cc1ccc(C(=O)O)cc1)CCS2.O=C(O)/C=C/C(=O)O [Form 1 and Form 2]
Form obtained from slurry ([1]; acetonitrile/water mixtures, all tested ratios, 15° C. or 40° C.): converted into the acetonitrile solvate (Form 4)
Form obtained from slurry ([1]; methanol/water mixtures, all tested ratios except 20/80 v/v, 15° C. or 40° C.): converted into the methanol solvate (Form 3)

Storage time without any detectable conversion into Form 2 ([2]; XRD, FIG. 5): at least 24 months
Stability of the polymorph on storage (XRD, FIG. 5) ([2]; after 24 months, open bottle 25° C./60% RH, closed bottle 40° C./75% RH, open bottle 40° C./75% RH): stable
Loss of mass before melting degradation (TGA) [4]: about 1%
SMILES: COc1ccc2c(c1)CN(Cc1ccc(C(=O)O)cc1)CCS2.O=C(O)/C=C/C(=O)O [Form 1, 4-[(7-methoxy-2,3-dihydro-1,4-benzothiazepin-4(5H)yl)methyl]benzoic acid, hemifumarate]
Hygroscopicity [3]: slightly hygroscopic; also recorded: non-hygroscopic

From patent US11504383B2, “Crystalline forms of a Ryanodine receptor modulator and uses thereof” (ARMGO Pharma, Inc., priority 2021, dated 2022)
